This is an account of results in ChEMBL document CHEMBL1201862, “PubChem BioAssay data set” (2004).

Among the test systems are SF-539; 786-0; CCRF-CEM; RXF 393; SF-268; NCI/ADR-RES; SNB-19; SK-MEL-2; NCI-H460; SN12C; M14; K562; MCF7; A549; MDA-MB-231; SK-OV-3; A498; ACHN; HL-60; MDA-MB-435.
Common to all, as to test: NCI-60 cell line screen, 48 h

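These data come from cells grown in 96-well plates and exposed to compound for 48 hours at five concentrations. At the GI50, growth is halved.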 Activity calls are given as the source filed them. Cut-off read from the data, not from the text of the source: active = GI50 up to about 1.1 µM and inactive = higher. Some results are limits rather than exact numbers.

On to `Cc1ccc([N+](=O)[O-])c2c(NCCC[N+](C)(C)[O-])c3ccccc3nc12`, for which the GI50 in the experiment on SF-539 was 2.6 µM (inactive); with 786-0, 2.02 µM (inactive); in the experiment with CCRF-CEM, 2.07 µM (inactive); in the experiment on RXF 393, 1.35 µM (inactive); in the experiment with SF-268, 2.47 µM (inactive); in the experiment with NCI/ADR-RES, > 95.3 µM (inactive). Besides, the GI50 is 1.17 µM (inactive) in the experiment on SNB-19; 0.773 µM (active) with SK-MEL-2; 0.716 µM (active) with NCI-H460; 2.19 µM (inactive) in the experiment with SN12C; 2.34 µM (inactive) in the experiment on M14; 1.52 µM (inactive) in the experiment on K562. Further, the GI50 was 0.401 µM (active) in the experiment with MCF7; 1.53 µM (inactive) in the experiment with A549; 1.86 µM (inactive) in the experiment with MDA-MB-231; 3.86 µM (inactive) with SK-OV-3; 1.89 µM (inactive) in the experiment on A498; 5.57 µM (inactive) in the experiment on ACHN. Moreover, the GI50 is 4 µM (inactive) with HL-60 and 1.77 µM (inactive) in the experiment on MDA-MB-435.

Take `OCc1ccn2c1[C@@H](O)CC2`: the GI50 in the experiment with SF-539, with 786-0, with CCRF-CEM, with RXF 393, in the experiment with SF-268 and in the experiment with NCI/ADR-RES was > 100 µM (inactive) throughout. Besides, the GI50 with SNB-19, with SK-MEL-2, in the experiment on NCI-H460, in the experiment on SN12C, with M14 and with K562 was > 100 µM (inactive) throughout. Further, the GI50 in the experiment with MCF7, in the experiment with A549, in the experiment with MDA-MB-231, in the experiment on SK-OV-3, in the experiment on A498 and with ACHN was > 100 µM (inactive) each time. Moreover, the GI50 with HL-60 and in the experiment on MDA-MB-435 was > 100 µM (inactive) each time.

For the molecule `C#CCn1c(=O)c(Cl)cn(/C(=C/C(=O)OCC)C(=O)OCC)c1=O`, the GI50 in the experiment on SF-539 was 6.11 µM (inactive); in the experiment with 786-0 it was 1.98 µM (inactive); in the experiment with CCRF-CEM it was 5.2 µM (inactive); in the experiment on RXF 393, 2.12 µM (inactive); in the experiment on SF-268 it was 27.9 µM (inactive); with NCI/ADR-RES it was 26 µM (inactive). In addition, the GI50 in the experiment on SNB-19 is 39.8 µM (inactive); with SK-MEL-2 it was 17.4 µM (inactive); in the experiment with NCI-H460, 32.4 µM (inactive); in the experiment with SN12C, 22.4 µM (inactive); in the experiment on M14, 6.98 µM (inactive); with K562, 1.7 µM (inactive). The GI50 in the experiment on MCF7 was 8.45 µM (inactive); in the experiment on A549, 25 µM (inactive); in the experiment on MDA-MB-231 it was 18.2 µM (inactive); in the experiment with SK-OV-3 it was 31.6 µM (inactive); in the experiment with A498, 22.9 µM (inactive); in the experiment with ACHN it was 2.03 µM (inactive). Also, the GI50 was 3.05 µM (inactive) with HL-60 and 18 µM (inactive) with MDA-MB-435.

On to `CC1(C)C=C(S(=O)(=O)c2ccccc2)Oc2ccccc2O1`, for which the GI50 in the experiment with SF-539 is 82.8 µM (inactive); in the experiment with 786-0, 44.6 µM (inactive); in the experiment with CCRF-CEM, 40.1 µM (inactive); in the experiment on RXF 393, 34.8 µM (inactive); with SF-268 it was 61.1 µM (inactive); with NCI/ADR-RES, 52.1 µM (inactive). Moreover, the GI50 in the experiment on SNB-19 is 62.5 µM (inactive); with SK-MEL-2, 52.4 µM (inactive); in the experiment on NCI-H460, 35.2 µM (inactive); in the experiment with SN12C it was 64.9 µM (inactive); in the experiment with M14, 46 µM (inactive); in the experiment with K562, 29.8 µM (inactive). For the same molecule, the GI50 in the experiment with MCF7 is 43.5 µM (inactive); in the experiment with A549, 41 µM (inactive); in the experiment with MDA-MB-231 it was > 100 µM (inactive); in the experiment with SK-OV-3 it was 60.3 µM (inactive); in the experiment with A498, 30.8 µM (inactive); in the experiment on ACHN, 34.8 µM (inactive). For the same molecule, the GI50 in the experiment on HL-60 and with MDA-MB-435 was 20.5 µM (inactive) in each case.

Turning to `CO/N=C(/C(=O)OC)c1ccccc1COc1ccccc1C(F)(F)F`, the GI50 is 20.3 µM (inactive) in the experiment on SF-539; 43.6 µM (inactive) with 786-0; 13 µM (inactive) with CCRF-CEM; > 100 µM (inactive) in the experiment with RXF 393; 32.6 µM (inactive) with SF-268; 29.3 µM (inactive) with NCI/ADR-RES. Besides, the GI50 is 98.2 µM (inactive) with SNB-19; 20.8 µM (inactive) in the experiment on SK-MEL-2; 32.4 µM (inactive) in the experiment with NCI-H460; 61.8 µM (inactive) in the experiment with SN12C; 26.9 µM (inactive) in the experiment on M14; 19.6 µM (inactive) with K562. Moreover, the GI50 in the experiment on MCF7 was 39.4 µM (inactive); in the experiment with A549 it was 21.7 µM (inactive); with MDA-MB-231, 80.9 µM (inactive); in the experiment on SK-OV-3, 16.6 µM (inactive); in the experiment with A498 it was 39.7 µM (inactive); in the experiment with ACHN it was 83.6 µM (inactive). Besides, the GI50 in the experiment with HL-60 was 10.5 µM (inactive); in the experiment with MDA-MB-435, 24.4 µM (inactive).

Turning to `CCC1(O)C=CC(=O)C=C1`, the GI50 was 0.0422 µM (active) in the experiment on SF-539; 18.4 µM (inactive) in the experiment on 786-0; 60.7 µM (inactive) in the experiment with CCRF-CEM; 18.4 µM (inactive) with RXF 393; 20.7 µM (inactive) with SF-268; 24 µM (inactive) with NCI/ADR-RES. For the same molecule, the GI50 in the experiment on SNB-19 was 18.1 µM (inactive); with SK-MEL-2, 31.1 µM (inactive); with NCI-H460, 23.4 µM (inactive); in the experiment with SN12C, 32.9 µM (inactive); in the experiment on M14, 17.5 µM (inactive); in the experiment on K562, 39.5 µM (inactive). In addition, the GI50 with MCF7 is 24 µM (inactive); with A549, 31.6 µM (inactive); with MDA-MB-231 it was 17.2 µM (inactive); in the experiment with SK-OV-3, 38.5 µM (inactive); with A498 it was 24.5 µM (inactive); in the experiment with ACHN it was 20.6 µM (inactive). Besides, the results for the GI50 in the experiment on HL-60 and in the experiment on MDA-MB-435 were 35 µM (inactive) and 29 µM (inactive), respectively.

As to `CC(C)OC(=O)NNc1cccc(Cl)c1`, the GI50 with SF-539, in the experiment with 786-0, in the experiment with CCRF-CEM, in the experiment with RXF 393, in the experiment with SF-268 and in the experiment on NCI/ADR-RES was > 100 µM (inactive) in each case. Also, the GI50 in the experiment with SNB-19 was > 100 µM (inactive); in the experiment with SK-MEL-2 it was 19.4 µM (inactive); with NCI-H460, > 100 µM (inactive); in the experiment on SN12C, > 100 µM (inactive); with M14, > 100 µM (inactive); with K562, 47.3 µM (inactive). For the same molecule, the GI50 with MCF7, with A549, in the experiment on MDA-MB-231, in the experiment on SK-OV-3, with A498 and in the experiment on ACHN was > 100 µM (inactive) in each case. Moreover, the GI50 with HL-60 is 33.3 µM (inactive); with MDA-MB-435, > 100 µM (inactive).

Consider `CN(C)c1cccc(F)c1C(=O)NC(=O)Nc1ccc(Cl)cc1`, for which the GI50 in the experiment on SF-539 was 3.15 µM (inactive); in the experiment on 786-0 it was 2.98 µM (inactive); in the experiment with CCRF-CEM, 0.745 µM (active); in the experiment with RXF 393, 3.67 µM (inactive); in the experiment on SF-268, 12 µM (inactive); with NCI/ADR-RES, 3.21 µM (inactive). Moreover, the GI50 is > 26.1 µM (inactive) in the experiment on SNB-19; 2.29 µM (inactive) with SK-MEL-2; 1.91 µM (inactive) in the experiment with NCI-H460; 8.83 µM (inactive) in the experiment on SN12C; 1.93 µM (inactive) in the experiment with M14; 0.479 µM (active) in the experiment with K562. Further, the GI50 in the experiment on MCF7 was 2.17 µM (inactive); in the experiment on A549 it was 5.48 µM (inactive); in the experiment on MDA-MB-231 it was 14.8 µM (inactive); in the experiment on SK-OV-3 it was 3.75 µM (inactive); with A498, 11.5 µM (inactive); with ACHN it was 4.79 µM (inactive). In addition, the GI50 in the experiment with HL-60 is 0.533 µM (active); in the experiment with MDA-MB-435, 0.118 µM (active).

`Nc1c(S(=O)(=O)O)cc(Nc2cccc(S(=O)(=O)/C=C/S(=O)(=O)O)c2)c2c1C(=O)c1ccccc1C2=O`: the GI50 with SF-539 is > 100 µM (inactive); in the experiment on 786-0 it was > 100 µM (inactive); in the experiment on CCRF-CEM, > 100 µM (inactive); in the experiment with RXF 393, 14.2 µM (inactive); in the experiment on SF-268, > 100 µM (inactive); in the experiment with NCI/ADR-RES, > 100 µM (inactive). For the same molecule, the GI50 with SNB-19, in the experiment on SK-MEL-2, with NCI-H460, in the experiment with SN12C, in the experiment with M14 and with K562 was > 100 µM (inactive) each time. In addition, the GI50 in the experiment on MCF7, in the experiment on A549, with MDA-MB-231, in the experiment with SK-OV-3, in the experiment with A498 and with ACHN was > 100 µM (inactive) in each case. Besides, the GI50 in the experiment on HL-60 and in the experiment on MDA-MB-435 was > 100 µM (inactive) throughout.

As for `Cc1ccc2nc3sc(=O)sc3nc2c1` [CHINOMETHIONAT], the GI50 in the experiment on SF-539 was 18.7 µM (inactive); with 786-0, 15.5 µM (inactive); in the experiment with CCRF-CEM, 31.5 µM (inactive); in the experiment on RXF 393, 18.1 µM (inactive); with SF-268, 16.4 µM (inactive); in the experiment on NCI/ADR-RES, 14.8 µM (inactive). The GI50 was 18.2 µM (inactive) in the experiment on SNB-19; 14.4 µM (inactive) in the experiment on SK-MEL-2; 12.9 µM (inactive) with NCI-H460; 15.5 µM (inactive) in the experiment with SN12C; 16.9 µM (inactive) in the experiment with M14; 26.2 µM (inactive) in the experiment with K562. In addition, the GI50 with MCF7 is 17.6 µM (inactive); with A549, 16.1 µM (inactive); in the experiment on MDA-MB-231 it was 17.3 µM (inactive); in the experiment with SK-OV-3, 19.6 µM (inactive); with A498, 7.48 µM (inactive); with ACHN, 15.2 µM (inactive). Moreover, the GI50 in the experiment on HL-60 was 16.6 µM (inactive); with MDA-MB-435 it was 16.1 µM (inactive).
